Measurements: patent US20170246160A1, “SOLID PHARMACEUTICAL COMPOSITION” (KYORIN PHARMACEUTICAL CO., LTD., priority 2014, published 2017)

Assay: Dissolution test (paddle method, Japanese Pharmacopoeia Sixteenth Edition), first fluid for dissolution test
Assay type: physicochemical
Conditions: for dissolution rate in the first fluid for dissolution test: 30 minutes after initiation, paddle 50 rpm, 37° C., 900 mL, hydrochloride
Method: In order to evaluate each of the compositions (tablets) in Example 1 and Comparative Example 1, a dissolution test was performed in accordance with dissolution apparatus 2 (paddle method) in the Japanese Pharmacopoeia Sixteenth Edition. Detailed conditions of the dissolution test are as follows.
In order to evaluate each of the compositions (tablets) in Example 2 and Comparative Example 2, a dissolution test was performed in the same manner as in Test Example 1.

[1] = coated tablets of Example 1 / Comparative Example 1 (direct compression), FIG. 5

Compound	dissolution rate in the first fluid for dissolution test [1]	dissolution rate in the first fluid for dissolution test (coated tablets of Example 2 / Comparative Example 2 (wet granulation method), FIG. 6, listed as B-form crystal) [%]	dissolution rate in the first fluid for dissolution test compared with the tablet containing Compound 1 (A-form crystal) (tablets of Example 1 vs Comparative Example 1, FIG. 5)	dissolution rate in the first fluid for dissolution test (coated tablets of Example 2 / Comparative Example 2 (wet granulation method), FIG. 6)
COc1c(N2C[C@H](CNC3CC3)[C@H](F)C2)c(F)cc2c(=O)c(C(=O)O)cn(CCF)c12.Cl [Compound 2, 7-[(3S,4S)-3-{(cyclopropylamino)methyl}-4-fluoropyrrolidine-1-yl]-6-fluoro-1-(2-fluoroethyl)-8-methoxy-4-oxo-1,4-dihydroquinoline-3-carboxylic acid hydrochloride]	≥ 80%	≥ 80	higher	–
COc1c(N2C[C@H](CNC3CC3)[C@H](F)C2)c(F)cc2c(=O)c(C(=O)O)cn(CCF)c12.Cl [Compound 1, 7-[(3S,4S)-3-((cyclopropylamino)methyl)-4-fluoropyrrolidine-1-yl]-6-fluoro-1-(2-fluoroethyl)-8-methoxy-4-oxo-1,4-dihydroquinoline-3-carboxylic acid hydrochloride]	at most 25%	–	–	at most 30%
